Measured values reported in ChEMBL document CHEMBL4340543, “Synthesis and biological evaluation of new HIV-1 protease inhibitors with purine bases as P2-ligands” (Bioorg Med Chem Lett, 2019).
pIC50: −log10 of the molar value.

Molecular target: Protease (Human immunodeficiency virus 1, UniProt Q9YQ12)
Assay: Inhibition of wild type HIV1 protease expressed in Escherichia coli using Arg-Glu (EDANS)-Ser-Gln-Asn-Tyr-Pro-Ile-Val-Gln-Lys(DABCYL)-Arg as substrate preincubated for 20 to 30 mins followed by substrate addition and measured for 10 mins by FRET assay

Protease, sequence (Q9YQ12 whole entry): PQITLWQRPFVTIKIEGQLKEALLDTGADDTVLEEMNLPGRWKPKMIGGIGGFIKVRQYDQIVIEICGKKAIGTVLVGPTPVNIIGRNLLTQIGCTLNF

COc1ccc(S(=O)(=O)N(CC(C)C)C[C@@H](O)[C@H](Cc2ccccc2)NC(=O)Cn2cnc3c(N)ncnc32)cc1 was tested, and the pIC50 was 5.70.

Work on Cc1nc2cncnc2n1CC(=O)N[C@@H](Cc1ccccc1)[C@H](O)CN(CC(C)C)S(=O)(=O)c1ccc(N)cc1 yielded a pIC50 of 6.19.

Compound COc1ccc(S(=O)(=O)N(CC(C)C)C[C@@H](O)[C@H](Cc2ccccc2)NC(=O)Cn2cnc3c(Cl)ncnc32)cc1 has a pIC50 of 7.37.

COc1ccc(S(=O)(=O)N(CC(C)C)C[C@@H](O)[C@H](Cc2ccccc2)NC(=O)Cn2c(C)nc3cncnc32)cc1 gave a pIC50 of 6.82.

Compound COc1nc(N)nc2c1ncn2CC(=O)N[C@@H](Cc1ccccc1)[C@H](O)CN(CC(C)C)S(=O)(=O)c1ccc(N)cc1 has a pIC50 of 6.72.

For COc1ccc(S(=O)(=O)N(CC(C)C)C[C@@H](O)[C@H](Cc2ccccc2)NC(=O)Cn2cnc3c(OC)ncnc32)cc1, the pIC50 was 6.74.

CC(C)CN(C[C@@H](O)[C@H](Cc1ccccc1)NC(=O)Cn1cnc2cnc(N)nc21)S(=O)(=O)c1ccc(N)cc1 gave a pIC50 of 5.17.

For CC(C)CN(C[C@@H](O)[C@H](Cc1ccccc1)NC(=O)Cn1cnc2c(N)ncnc21)S(=O)(=O)c1ccc([N+](=O)[O-])cc1, the pIC50 was 5.45.

CC(C)CN(C[C@@H](O)[C@H](Cc1ccccc1)NC(=O)Cn1cnc2cncnc21)S(=O)(=O)c1ccc([N+](=O)[O-])cc1 was tested, and the pIC50 was 5.59.

Compound CC(C)CN(C[C@@H](O)[C@H](Cc1ccccc1)NC(=O)Cn1cnc2c(Cl)ncnc21)S(=O)(=O)c1ccc(N)cc1 has a pIC50 of 5.15.

COc1ncnc2c1ncn2CC(=O)N[C@@H](Cc1ccccc1)[C@H](O)CN(CC(C)C)S(=O)(=O)c1ccc(N)cc1 was tested, and the pIC50 was 5.82.

In the case of COc1ccc(S(=O)(=O)N(CC(C)C)C[C@@H](O)[C@H](Cc2ccccc2)NC(=O)Cn2cnc3c(OC)nc(N)nc32)cc1, the pIC50 was 6.34.

In the case of COc1ncnc2c1ncn2CC(=O)N[C@@H](Cc1ccccc1)[C@H](O)CN(CC(C)C)S(=O)(=O)c1ccc([N+](=O)[O-])cc1, the pIC50 was 5.59.

Compound CC(C)CN(C[C@@H](O)[C@H](Cc1ccccc1)NC(=O)Cn1cnc2c(O)ncnc21)S(=O)(=O)c1ccc(N)cc1 has a pIC50 of 5.74.

Cc1ncnc2c1ncn2CC(=O)N[C@@H](Cc1ccccc1)[C@H](O)CN(CC(C)C)S(=O)(=O)c1ccc(N)cc1 showed a pIC50 of 5.42.

COc1ccc(S(=O)(=O)N(CC(C)C)C[C@@H](O)[C@H](Cc2ccccc2)NC(=O)Cn2cnc3c(Cl)nc(N)nc32)cc1 showed a pIC50 of 6.24.

CC(C)CN(C[C@@H](O)[C@H](Cc1ccccc1)NC(=O)Cn1cnc2cncnc21)S(=O)(=O)c1ccc(N)cc1 gave a pIC50 of 6.24.

With CC(C)CN(C[C@@H](O)[C@H](Cc1ccccc1)NC(=O)Cn1cnc2cnc(N)nc21)S(=O)(=O)c1ccc([N+](=O)[O-])cc1 the pIC50 was 5.43.

CC(C)CN(C[C@@H](O)[C@H](Cc1ccccc1)NC(=O)Cn1cnc2c(O)nc(N)nc21)S(=O)(=O)c1ccc([N+](=O)[O-])cc1 showed a pIC50 of 6.10.

With COc1ccc(S(=O)(=O)N(CC(C)C)C[C@@H](O)[C@H](Cc2ccccc2)NC(=O)Cn2cnc3cncnc32)cc1 the pIC50 was 6.62.

In the case of COc1nc(N)nc2c1ncn2CC(=O)N[C@@H](Cc1ccccc1)[C@H](O)CN(CC(C)C)S(=O)(=O)c1ccc([N+](=O)[O-])cc1, the pIC50 was 5.76.

COc1ccc(S(=O)(=O)N(CC(C)C)C[C@@H](O)[C@H](Cc2ccccc2)NC(=O)Cn2cnc3c(O)ncnc32)cc1 was tested, and the pIC50 was 7.17.

Cc1nc2cncnc2n1CC(=O)N[C@@H](Cc1ccccc1)[C@H](O)CN(CC(C)C)S(=O)(=O)c1ccc([N+](=O)[O-])cc1 was tested, and the pIC50 was 6.24.

In the case of CC(C)CN(C[C@@H](O)[C@H](Cc1ccccc1)NC(=O)Cn1cnc2c(O)ncnc21)S(=O)(=O)c1ccc([N+](=O)[O-])cc1, the pIC50 was 5.61.

Work on CC(C)CN(C[C@@H](O)[C@H](Cc1ccccc1)NC(=O)Cn1cnc2c(Cl)nc(N)nc21)S(=O)(=O)c1ccc([N+](=O)[O-])cc1 yielded a pIC50 of 6.02.

COc1ccc(S(=O)(=O)N(CC(C)C)C[C@@H](O)[C@H](Cc2ccccc2)NC(=O)Cn2cnc3c(C)ncnc32)cc1 gave a pIC50 of 7.38.

For CC(C)CN(C[C@@H](O)[C@H](Cc1ccccc1)NC(=O)Cn1cnc2c(N)ncnc21)S(=O)(=O)c1ccc(N)cc1, the pIC50 was 5.91.

Work on CC(C)CN(C[C@@H](O)[C@H](Cc1ccccc1)NC(=O)Cn1cnc2c(Cl)nc(N)nc21)S(=O)(=O)c1ccc(N)cc1 yielded a pIC50 of 4.93.

For Cc1ncnc2c1ncn2CC(=O)N[C@@H](Cc1ccccc1)[C@H](O)CN(CC(C)C)S(=O)(=O)c1ccc([N+](=O)[O-])cc1, the pIC50 was 5.60.

Compound COc1ccc(S(=O)(=O)N(CC(C)C)C[C@@H](O)[C@H](Cc2ccccc2)NC(=O)Cn2cnc3cnc(N)nc32)cc1 has a pIC50 of 6.44.

Work on CC(C)CN(C[C@@H](O)[C@H](Cc1ccccc1)NC(=O)Cn1cnc2c(Cl)ncnc21)S(=O)(=O)c1ccc([N+](=O)[O-])cc1 yielded a pIC50 of 6.51.

Work on CC(C)CN(C[C@@H](O)[C@H](Cc1ccccc1)NC(=O)Cn1cnc2c(O)nc(N)nc21)S(=O)(=O)c1ccc(N)cc1 yielded a pIC50 of 5.33.

For COc1ccc(S(=O)(=O)N(CC(C)C)C[C@@H](O)[C@H](Cc2ccccc2)NC(=O)Cn2cnc3c(O)nc(N)nc32)cc1, the pIC50 was 7.10.
